The values that follow come from patent US20260347373A1, “HETEROCYCLIC COMPOUNDS, COMPOSITIONS THEREOF, AND METHODS OF TREATMENT THEREWITH” (BeOne Medicines I GmbH, priority 2023, published 2026).

Structures can show the parent of a compound that is named as a salt. Where two headings read alike, the source gives them in different places.

One assay deals with WT KRAS (Homo sapiens, UniProt P01116). The experiment in a line: KRAS WT Probe Displacement Assay (TR-FRET, GDP-loaded). In kind it is binding. An excerpt: (§1) The synthetic routes of probe 1 and 2, which have been disclosed in PCT/CN2022/070676, are hereby incorporated herein.
Another assay deals with KRAS G12D (Homo sapiens, UniProt P01116, G12D). Description: KRAS G12D Probe Displacement Assay (TR-FRET, GDP-loaded). In kind it is binding.
Text: as §1

Where [1] appears, read: KRAS^WT Probe Displacement Assay IC50, KRAS WT.
[2] abbreviates: KRAS^G12D Probe Displacement Assay IC50, KRAS G12D.
The mark [3] stands for this setting: KRAS WT, read-out: KRAS^WT Probe Displacement Assay IC50.
The mark [4] stands for this setting: KRAS G12D, read-out: KRAS^G12D Probe Displacement Assay IC50.

KRAS G12D, sequence (P01116 1-188 isoform P01116-2 G12D): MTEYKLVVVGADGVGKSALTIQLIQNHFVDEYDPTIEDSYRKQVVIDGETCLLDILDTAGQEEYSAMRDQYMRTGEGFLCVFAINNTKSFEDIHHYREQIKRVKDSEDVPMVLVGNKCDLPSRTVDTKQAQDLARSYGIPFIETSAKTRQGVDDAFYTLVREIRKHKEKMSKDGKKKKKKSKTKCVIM
WT KRAS, sequence (P01116 1-188 isoform P01116-2): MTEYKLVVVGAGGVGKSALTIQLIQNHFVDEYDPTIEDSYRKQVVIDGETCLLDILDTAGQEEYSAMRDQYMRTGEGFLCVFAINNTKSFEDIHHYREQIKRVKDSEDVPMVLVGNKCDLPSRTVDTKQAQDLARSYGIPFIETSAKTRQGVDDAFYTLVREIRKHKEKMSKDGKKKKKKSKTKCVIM

`CO[C@H]1CCN(CC2(COc3nc4c5c(nc(-c6cc(N)cc(C)c6C(F)(F)F)c(F)c5n3)OCC[C@@H]3[C@@H]5CC[C@H](CN43)N5)CC2)C1` [Example 88, 3-((6aR,7S,10R)-1-fluoro-13-((1-(((S)-3-methoxypyrrolidin-1-yl)methyl)cyclopropyl)methoxy)-5,6,6a,7,8,9,10,11-octahydro-4-oxa-3,11a,12,14,15-pentaaza-7,10-methanocyclohepta [4,5]cycloocta [1,2,3-de]naphthalen-2-yl)-5-methyl-4-(trifluoromethyl) aniline]: the figures for the IC50 at WT KRAS (setting [1]) and at KRAS G12D (setting [2]) were 3 to 1000 nM and below 0.3 nM, respectively.
On to `[2H]C([2H])([2H])N1CC/C(=C\F)C(C)(C([2H])([2H])Oc2nc3c4c(nc(-c5cc(N)cc(C)c5C(F)(F)F)c(F)c4n2)OCC[C@@H]2[C@@H]4CC[C@H](CN32)N4)C1` (single isomer, unassigned) [Example 242], for which the IC50 was 3 to 1000 nM on WT KRAS (setting [3]) and below 0.3 nM at KRAS G12D (setting [4]).
As for `Cc1cc(N)cc(-c2nc3c4c(nc(OCC5(CN6CCC(F)CC6)CC5)nc4c2F)N2C[C@H]4CC[C@H](N4)[C@H]2CCO3)c1C(F)(F)F` [Example 66, 3-((6aR,7S,10R)-1-fluoro-13-((1-((4-fluoropiperidin-1-yl)methyl)cyclopropyl)methoxy)-5,6,6a,7,8,9,10,11-octahydro-4-oxa-3,11a,12,14,15-pentaaza-7,10-methanocyclohepta[4,5]cycloocta [1,2,3-de]naphthalen-2-yl)-5-methyl-4-(trifluoromethyl)aniline], the IC50 at WT KRAS (setting [3]) is 3 to 1000 nM; at KRAS G12D (setting [4]), below 0.3 nM.
For `Cc1cc(N)cc(-c2nc3c4c(nc(OCC56CC(F)CN5CC(F)C6)nc4c2F)N2C[C@H]4CC[C@H](N4)[C@H]2CCO3)c1C(F)(F)F` (stereo partly drawn) [Example 6, 3-((6aR,7S,10R)-13-((2,6-difluorotetrahydro-1H-pyrrolizin-7a(5H)-yl)methoxy)-1-fluoro-5,6,6a,7,8,9,10,11-octahydro-4-oxa-3,11a,12,14,15-pentaaza-7,10-methanocyclohepta[4,5]cycloocta [1,2,3-de]naphthalen-2-yl)-5-methyl-4-(trifluoromethyl)aniline] the same measures were 3 to 1000 nM and 0.3 to 3 nM.
On the same counts, the results for `Cc1cc(N)cc(-c2nc3c4c(nc(OCC5(CN6CCCC6)CC5)nc4c2F)N2C[C@H]4CC[C@H](N4)[C@H]2CCO3)c1C(F)(F)F` [Example 77, 3-((6aR,7S,10R)-1-fluoro-13-((1-(pyrrolidin-1-ylmethyl)cyclopropyl)methoxy)-5,6,6a,7,8,9,10,11-octahydro-4-oxa-3,11a,12,14,15-pentaaza-7,10-methanocyclohepta[4,5]cycloocta[1,2,3-de]naphthalen-2-yl)-5-methyl-4-(trifluoromethyl)aniline] are 3 to 1000 nM and below 0.3 nM.
Regarding `Cc1cc(N)cc(-c2nc3c4c(nc(OCC5(CN6CCC7(CCOCC7)C6)CC5)nc4c2F)N2C[C@H]4CC[C@H](N4)[C@H]2CCO3)c1C(F)(F)F` [Example 101, 3-((6aR,7S,10R)-13-((1-((8-oxa-2-azaspiro[4.5]decan-2-yl)methyl)cyclopropyl)methoxy)-1-fluoro-5,6,6a, 7,8,9,10,11-octahydro-4-oxa-3,11a,12,14,15-pentaaza[7,10]methanocyclohepta [4,5]cycloocta[1,2,3-de]naphthalen-2-yl)-5-methyl-4-(trifluoromethyl) aniline formate], the IC50 on WT KRAS (setting [1]) was 3 to 1000 nM; at KRAS G12D (setting [2]), below 0.3 nM.
In the case of `Cc1cc(N)cc(-c2nc3c4c(nc(OCC5(CN6CCC(C#N)CC6)CC5)nc4c2F)N2C[C@H]4CC[C@H](N4)[C@H]2CCO3)c1C(F)(F)F` [Example 165, 1-((1-((((6aR,7S,10R)-2-(5-amino-3-methyl-2-(trifluoromethyl)phenyl)-1-fluoro-5,6,6a,7,8,9,10,11-octahydro-4-oxa-3,11a,12,14,15-pentaaza-7,10-methanocyclohepta[4,5]cycloocta[1,2,3-de]naphthalen-13-yl)oxy)methyl)cyclopropyl)methyl)piperidine-4-carbonitrile], the IC50 is 0.3 to 3 nM on WT KRAS (setting [3]) and below 0.3 nM at KRAS G12D (setting [4]).
On the same counts, the results for `Cc1cc(N)cc(-c2nc3c4c(nc(O[C@@H](C)[C@@H]5CCCN5C)nc4c2F)N2C[C@H]4CC[C@H](N4)[C@H]2CCO3)c1C(F)(F)F` [Example 37, 3-((6aR,7S,10R)-1-fluoro-13-((S)-1-((S)-1-methylpyrrolidin-2-yl)ethoxy)-5,6,6a,7,8,9,10,11-octahydro-4-oxa-3,11a,12,14,15-pentaaza-7,10-methanocyclohepta[4,5]cycloocta [1,2,3-de]naphthalen-2-yl)-5-methyl-4-(trifluoromethyl)aniline] are 3 to 1000 nM and below 0.3 nM.
With `Cc1cc(N)cc(-c2nc3c4c(nc(OCC5(CN6CCC[C@@H]6C)CC5)nc4c2F)N2C[C@H]4CC[C@H](N4)[C@H]2CCO3)c1C(F)(F)F` [Example 123, 3-((6aR,7S,10R)-1-fluoro-13-((1-(((S)-2-methylpyrrolidin-1-yl)methyl)cyclopropyl)methoxy)-5,6,6a, 7,8,9,10,11-octahydro-4-oxa-3,11a,12,14,15-pentaaza-7,10-methanocyclohepta [4,5]cycloocta [1,2,3-de]naphthalen-2-yl)-5-methyl-4-(trifluoromethyl)aniline], the IC50 on WT KRAS (setting [3]) is 3 to 1000 nM; on KRAS G12D (setting [4]), below 0.3 nM.
On the same counts, the results for `Cc1cc(N)cc(-c2nc3c4c(nc(OCC5(C)CN(C)CCC5C(F)F)nc4c2F)N2C[C@H]4CC[C@H](N4)[C@H]2CCO3)c1C(F)(F)F` (single isomer, unassigned) [Example 245] are 0.3 to 3 nM and below 0.3 nM.
For the molecule `Cc1cc(N)cc(-c2nc3c4c(nc(OCC5(CN6CCOC7(CCC7)C6)CC5)nc4c2F)N2C[C@H]4CC[C@H](N4)[C@H]2CCO3)c1C(F)(F)F` [Example 121, 3-((6aR,7S,10R)-13-((1-((5-oxa-8-azaspiro[3.5]nonan-8-yl)methyl)cyclopropyl)methoxy)-1-fluoro-5,6,6a,7,8,9,10,11-octahydro-4-oxa-3,11a,12,14,15-pentaaza[7,10]methanocyclohepta [4,5]cycloocta[1,2,3-de]naphthalen-2-yl)-5-methyl-4-(trifluoromethyl)aniline], the values for the IC50 at WT KRAS (setting [3]) and on KRAS G12D (setting [4]) were 3 to 1000 nM and below 0.3 nM, respectively.
For `Cc1cc(N)cc(-c2nc3c4c(nc(OCC5(CN6CC=CC6C6(O)CC6)CC5)nc4c2F)N2C[C@H]4CC[C@H](N4)[C@H]2CCO3)c1C(F)(F)F` (stereo partly drawn) [Example 162, 1-(1-((1-((((6aR,7S,10R)-2-(5-amino-3-methyl-2-(trifluoromethyl)phenyl)-1-fluoro-5,6,6a,7,8,9,10,11-octahydro-4-oxa-3,11a,12,14,15-pentaaza-7,10-methanocyclohepta[4,5]cycloocta[1,2,3-de]naphthalen-13-yl)oxy)methyl)cyclopropyl)methyl)-2,5-dihydro-1H-pyrrol-2-yl)cyclopropan-1-ol] the same measures were 3 to 1000 nM and below 0.3 nM.
On the same counts, the results for `Cc1cc(N)cc(-c2nc3c4c(nc(OCC5(CN6CCCC67CCOC7)CC5)nc4c2F)N2C[C@H]4CC[C@H](N4)[C@H]2CCO3)c1C(F)(F)F` (stereo partly drawn) [Example 190, 3-((6aR,7S,10R)-13-((1-((7-oxa-1-azaspiro[4.4]nonan-1-yl)methyl)cyclopropyl)methoxy)-1-fluoro-5,6,6a,7,8,9,10,11-octahydro-4-oxa-3,11a,12,14,15-pentaaza[7,10]methanocyclohepta[4,5]cycloocta[1,2,3-de]naphthalen-2-yl)-5-methyl-4-(trifluoromethyl)aniline] are 3 to 1000 nM and below 0.3 nM.

A word on the IC50: it is the concentration that inhibits the measured activity by half.
